# Measurements from patent US5919769A, “Fucose derivatives, drugs containing the same as active ingredient, and intermediates for producing the same” (Kanebo, Ltd, priority 1995, dated 1999).
# Tests used:
# [1] = Oral toxicity observation in mice; format: in vivo; settings: 1000 mg/kg orally, observed for one week
# Excerpt: Moreover, the compound (I) of the present invention or a salt thereof show low toxicity. […] Therefore, the compound (I) of the present invention or a salt thereof is useful as a medicament.
# [2] = Inhibitory effects on ear swelling (ovalbumin-sensitized mice); format: in vivo, Female BALB/c mice; settings: tail vein at 2, 5 and 8 hours, 24 hours after induction
# Method: Inhibitory effects on ear swelling:
# (§1) Female BALB/c mice (6-weeks old) were sensitized by intraperitoneal injection of saline (0.5 ml) containing ovalbumin ([…]) and aluminum hydroxide gel (4 mg). Two weeks after the sensitization, a 1 mg/ml solution of ovalbumin in phosphate buffered saline (10 μl) was subcutaneously injected to the mice at both of the ears to induce the inflammatory response. In the non-inflammation group, phosphate buffered saline was subcutaneously injected to the sensitized mice instead.
# (§2) The test compound was dissolved in 0.01N-NaOH-saline so as to be a concentration of 1 mg/ml, and the solution was diluted with saline. The test compound solution thus prepared was injected to the mice at the tail vein, at 2, 5 and 8 hours after the induction of inflammatory response, in a dosage volume of 0.1 ml/10 g of body weight (the treated group). In the control group, saline only was injected to the mice.
# Twenty-four hours after the induction of inflammatory response, both of the ears were cut to collect a piece of 6 mm diameter, and the weight thereof was measured. The ear weight per area was used as an index for ear swelling. The inhibitory rate on ear swelling was calculated by the following equation. [formula] Wexp: Average ear weight in the treated group Wnega: Average ear weight in the non-inflammation group
# Wcont: Average ear weight in the control group
# L-selectin = test: Inhibitory test on the binding of L-selectin to sialyl Le^X (selectin-IgG chimera); settings: inhibition of L-selectin IgG chimera binding to sialyl Le^X-pentaceramide
# Method: (§3) The experiment was carried out according to the method using selectin-IgG chimera, which was reported by Foxall, C. et al. (J. Cell Biol., 117, 895-902 (1992)).
# (§4) Sialyl Le^X -pentaceramide was dissolved in 50% methanol in distilled water, and the solution was put into a 96-well plate in an amount of 100 pmol/well. The plate was allowed to stand at room temperature overnight, and the solvent therein was evaporated. The plate was washed with distilled water, and subjected to blocking with 50 mM imidazole buffer (pH 7.2) containing 5% BSA (bovine serum albumin) and 1 mM calcium chloride at room temperature for one hour.
# (§5) Separately, to 500-fold diluted solution of each biotinylated anti-human IgG Fc and streptavidin-alkaline phosphatase conjugate with a 50 mM imidazole buffer (pH 7.2) containing 1% BSA and 1 mM calcium chloride, P-selectin IgG chimera was added to give a final concentration of 40 μg/ml, and the mixture was incubated at room temperature for 30 minutes to give the complex solution.
# (§6) A test compound was dissolved in DMSO (except that the test compound h was dissolved in distilled water) to give 10 mM aqueous solution thereof, which was serially diluted with 50 mM imidazole buffer (pH 7.2) containing 1% BSA and 1 mM calcium chloride to give the solutions in 8 various concentrations (two-fold serial dilution from 20 μM). The test compound solution in each concentration and the above complex solution were mixed in equal volume, and the mixture was incubated at room temperature for 30 minutes to give the reaction solution.
# (§7) After the blocking was completed, the blocking solution in the above plate was discarded, and the plate was washed with 50 mM imidazole buffer (pH 7.2), and thereto was added the above reaction solution in an amount of 50 μl/well. The plate was incubated at 37° C. for 45 minutes, and then washed three times with 50 mM imidazole buffer (pH 7.2) and washed three times with distilled water. 1M diethanolamine (pH 9.8) containing 0.01% magnesium chloride and 1 mg/ml p-nitrophenyl phosphate was put into each well in an amount of 50 μl/well, and the plate was allowed to stand for 1 to 2 hours for color development. The absorbance at 405 nm was measured, and the binding rate (%) was calculated by the following equation, based on the absorbance (X) of the wells containing a test compound at various concentrations and the absorbance (A) of the wells containing no test compound.
# (§8) IC50 was evaluated by probit method from the binding rate.
# Inhibitory test on the binding of L-selectin to sialyl Le^X :
# The same procedures of Experiment 1 were repeated except that L-selectin IgG chimera (40 μg/ml) was used instead of P-selectin IgG chimera (40 μg/ml).
# cell infiltration [3] = test: Inhibitory effects on the peritoneal inflammation induced by thioglycollate (cell infiltration, MPO activity); format: in vivo, Male BALB/C mice; settings: 10 mg/kg, tail vein just before and one hour after induction, peritoneal exudate cells
# Method: Inhibitory effects on the peritoneal inflammation induced by thioglycollate:
# Male BALB/C mice (11-weeks old) were peritoneally injected with 3% thioglycollate medium (1 ml) to induce the inflammation. In the non-inflammation group, saline was peritoneally injected to the mice. Two hours thereafter, the mice were killed with […], and the peritoneal cavity was washed with a phosphate buffered saline containing 0.1% BSA, 0.5 mM EDTA, 10 U/ml heparin to collect the exudate cells. The red blood cells were lysed, and the exudate cells were lysed in 50 mM potassium phosphate buffer containing 0.5% hexadecyltrimethylammonium bromide. The MPO activity in the supernatant was measured according to the Bradley's method (see the above reference).
# The test compound was dissolved in 0.0012M arginine-containing saline solution so as to be a concentration of 1 mg/ml. The test compound solution was injected to the mice at the tail vein in a dosage volume of 0.1 ml/10 g of the body weight, at just before and one hour after the induction of inflammation response (the treated group). In the control group, saline solution was injected to the mice.
# The cell infiltration inhibitory rate was calculated in the same manner as in Experiment 4, by the equation 3.
# P-selectin = test: Inhibitory test on the binding of P-selectin to sialyl Le^X (selectin-IgG chimera); settings: inhibition of P-selectin IgG chimera binding to sialyl Le^X-pentaceramide
# Method: Inhibitory test on the binding of P-selectin to sialyl Le^X :
# as §3, §4, §5, §6, §7, §8
# cell infiltration [4] = test: Inhibitory effects on cell infiltration (MPO activity in ear tissue of Experiment 3); format: in vivo, Female BALB/c mice; settings: tail vein at 2, 5 and 8 hours
# Method: as §1, §2
# Inhibitory effects on cell infiltration:
# According to the report by Bradley, P. P. et al, (cf., Journal of Investigative Dermatology, 78, 206-209 (1982)), the activity of myeloperoxidase (hereinafter, referred to as MPO) in the tissue was used as an index for cell infiltration.
# The ear tissue, the weight of which was measured in Experiment 3, was homogenized, and centrifuged. The MPO activity in the supernatant was measured by using the absorbance at 450 nm (hereinafter, referred to as OD) of o-dianisidine as an index, according to the method of Bradley, et al. (see the above reference).
# The inhibitory rate on cell infiltration was calculated by the following equation. [formula] ODexp: Average OD in the treated group ODnega: Average OD in the non-inflammatory group
# ODcont: Average OD in the control group
IC50 (L-selectin),IC50 (P-selectin),Structure (SMILES),change observed after oral administration [1],Ear swelling inhibitory rate ([2]; 0.1 mg/kg),Ear swelling inhibitory rate ([2]; 1 mg/kg),Ear swelling inhibitory rate ([2]; 10 mg/kg),Cell infiltration inhibitory rate (cell infiltration [3]),Cell infiltration inhibitory rate (cell infiltration [4]; 0.1 mg/kg),Cell infiltration inhibitory rate (cell infiltration [4]; 1 mg/kg),Cell infiltration inhibitory rate (cell infiltration [4]; 10 mg/kg)
500 nM,300 nM,"CCCCCCCCCCCCCCC(CCCCCCCCCCCCCC)C(=O)N[C@H](CO[C@@H]1O[C@H]([C@H](C)O)[C@@H](O)[C@@H]1O)C(=O)N[C@@H](CCC(=O)O)C(=O)NC [compound c, [N-(2-tetradecylhexadecanoyl)-O-(α-L-fucofuranosyl)-D-seryl]-L-glutamic acid 1-methylamide]",no significant change was observed,45%,59%,86%,64%,19%,34%,64%
9400 nM,700 nM,"CCCCCCCCCCCCCCC(CCCCCCCCCCCCCC)C(=O)N[C@H](CO[C@@H]1O[C@@H](C)[C@@H](O)[C@@H](O)[C@@H]1O)C(=O)N[C@@H](CCC(=O)O)C(=O)NC [compound k, [N-(2-tetradecylhexadecanoyl)-O-(α-L-fucopyranosyl)-D-seryl]-L-glutamic acid 1-methylamide]",,,,,37%,,,
